How the values were obtained:
[1] = test system: HCT116 cells; experiment: Cell viability assay (MTT); format: cell-based, human; settings: for IC50: determined after 48 h (n = 4)
Method: Human colon adenocarcinoma HCT116 cells were purchased from ATCC (Manassas, Va.) and cultured in Dulbecco's modified Eagle's medium (Invitrogen, Carlsbad, Calif.) supplemented with 10% fetal bovine serum (HyClone, Logan, Utah) at 37° C. humidified air and 5% CO2.
HCT116 cells were seeded at a density of 1×10^4 cells per well in 96-well plates. 24 h later the cells were treated with various concentrations of apratoxins or solvent control. After 48 h of incubation, cell viability was detected using MTT according to the manufacturer's instructions (Promega, Madison, Wis.).

[2] = Plasma stability in mouse serum; format: in vitro ADME; settings: up to 24 h, FIG. 2C
Method: In vitro plasma stability of apratoxin A, S4 (BK), S7 (BL), S8 (BM) and S9 (BN) was done by using a modification of a published method [Chen, X.; Gardner, E. R.; Figg, W. D. J. Chromatogr. B Analyt. Technol. Biomed. Life Sci. 2008, 86, 153-158]. Ten microliters of apratoxin A, BK, BL, BM, or BN (25 μg/mL) were added to 100 μL of mouse serum, and the solution was vortex-mixed for 15 s and incubated for 0.25 min to 24 h (11 time points). At the end of each incubation period, 400 μL of ethyl acetate was added to each tube, followed by 200 μL of harmine to quench the reaction and to extract the remaining apratoxin A or S4 (BK), S7 (BL), S8 (BM) and S9 (BN). Samples were further incubated in a thermomixer at 27° C. (750 rpm, 5 min) and later centrifuged for 5 min at 1643 g. The ethyl acetate layer was collected and evaporated to dryness under nitrogen. Samples were reconstituted in 50 μL of acetonitrile. A volume of 10 μL of the reconstituted solution was injected into the HPLC-MS system.
Analysis of apratoxin A, S4 (BK), S7 (BL), S8 (BM) and S9 (BN) was done by using HPLC-MS [column, Onyx Monolithic C18 (3.0×100 mm), Phenomenex (Torrance, Calif.); solvent, water (solvent A) acetonitrile (solvent B); flow rate, 0.5 ml/min; detection by electrospray ionization-MS in positive ion mode (MRM scan)]. A stepwise gradient elution was used starting at 60% B and 40% A, then increasing to 80% B at 5 min and maintained at this condition for 5 min. Parameters were optimized before analysis by using direct syringe infusion. The retention times (tR, min; MRM ion pair) of the analytes and internal standard are as follows: harmine (2.2; 213.1→169.9), apratoxin A (4.7; 841.4→445.2), apratoxin S4 (BK) (4.1; 828.5→432.2), apratoxin S7 (BL) (4.05; 814.5→418.2), apratoxin S8 (BM) (5.2; 842.5→446.2), apratoxin S9 (BN) (4.9; 828.5→432.2). […]
Calibration curves for apratoxin A, S4 (BK), S7 (BL), S8 (BM) and S9 (BN) in the presence of mouse serum, HCT116 cell lysates, and aqueous solutions were generated by least-square linear regression analysis of the analyte peak area and internal standard peak area ratio against the nominal concentration of the standard solutions. A linear regression analysis was performed, and the concentration of remaining apratoxins at each time point was determined through interpolation for plasma, cellular, and aqueous stability experiments. The amount of remaining apratoxins with microsome incubation was determined from the peak area ratio of apratoxins at tx (3 min to 3 h) and t0. All calculations were done by using Analyst 1.4.2 (Applied Biosystems) Quantitate Mode.

[3] = test system: HCT116 xenograft; experiment: In vivo efficacy, HCT116 xenograft mouse model
Method: 3-5 week old female nude mice (nu/nu) were obtained from Charles River Laboratory (Wilmington, Mass.). 1×10^6 HCT116 cells in a volume of 100 μL of sterile saline were injected subcutaneously on the left rear flank of a nude mouse to establish tumors. Tumor dimensions were measured using calipers every day and tumor volumes were calculated using the formula W^2×L×0.5, where width (W)≤length (L). Tumors with a starting volume bigger than 100 mm^3 were excluded from the analysis. Mice were injected intraperitoneally with the doses of 2 μg/mouse (0.1 mg/kg), 5 μg/mouse (0.25 mg/kg) of apratoxin S8 (BM) or solvent (DMSO) control every day until the tumor size in one dimension reached 15 mm and tumor tissue was harvested on the following day. 50 mg of tumor tissue was sonicated in PhosphoSafe lysis buffer (EMD chemicals, Inc) and used for immunoblot analysis described as the above. All studies were carried out under the protocol approved by the Institutional Animal Care and Use Committee at the University of Florida.

| SMILES | IC50 [1] | plasma stability [2] | dose dependence of tumor growth inhibition ([3]; 0.1 and 0.25 mg/kg daily i.p.) | signs of toxicity (weight loss, abnormal behavior) ([3]; 0.1 and 0.25 mg/kg daily i.p., nude mice) | effect on tumor growth ([3]; higher dose 0.25 mg/kg daily i.p., about 2 weeks) | tumor growth inhibition ([3]; lower dose 0.1 mg/kg daily i.p., about 2 weeks) | potency relative to the other apratoxins, cell viability [1] |
| --- | --- | --- | --- | --- | --- | --- | --- |
| CC[C@H](C)[C@H]1C(=O)N2CCC[C@@H]2C(=O)O[C@H](C(C)(C)C)C[C@@H](C)C[C@H](O)CC2=N[C@@H](CCC(=O)N[C@@H](Cc3ccc(OC)cc3)C(=O)N(C)[C@@H](C)C(=O)N1C)CS2 [apratoxin S7 (BL), Apratoxin S7] | 1.25 nM | excellent | – | – | – | – | – |
| CC[C@H](C)[C@H]1C(=O)N2CCC[C@@H]2C(=O)O[C@H](C(C)(C)C)C[C@@H](C)C[C@H](O)C(C)(C)C2=N[C@@H](CCC(=O)N[C@@H](Cc3ccc(OC)cc3)C(=O)N(C)[C@@H](C)C(=O)N1C)CS2 [apratoxin S8 (BM), Apratoxin S8] | 1.99 nM | excellent | clear dose-dependent tumor growth inhibition | did not observe signs of toxicity | strongly retarded the tumor growth | about 50% | – |
| CC[C@H](C)[C@H]1C(=O)N2CCC[C@@H]2C(=O)O[C@H](C(C)(C)C)C[C@@H](C)C[C@H](O)[C@H](C)C2=N[C@H](CCC(=O)N[C@@H](Cc3ccc(OC)cc3)C(=O)N(C)[C@@H](C)C(=O)N1C)CS2 [apratoxin S9 (BN), Apratoxin S9] | 0.69 nM | excellent | – | – | – | – | 2-3 fold |

Source: patent US11718645B2, “Macrocyclic therapeutic agents, methods of manufacture, and methods of treatment” (University of Florida Research Foundation, Incorporated, priority 2014, dated 2023)
